Earlier results on one compound are cited in patent US8946410B2, “Automated radiosynthesis” (GE Healthcare Limited, priority 2009, dated 2015).

The data set addresses GABAA receptor. The following applies: GABAA receptor affinity, related art.

Regarding `CCOC(=O)c1ncn2c1CN(C)C(=O)c1cc([18F])ccc1-2` [[^18F]FMZ, [^18F]Flumazenil], the Ki (usually a measure of affinity in units of concentration, obtained from inhibition or displacement) is roughly 0.5 nM.
